Test results: US20240400591A1 (Jacobio Pharmaceuticals Co., Ltd., priority 2021, published 2024)
Read-outs that look alike come from different tables or passages of the source.

Experiments:
NUGC4 (P53 WT) = assay: Cell viability assay (CellTiter-Glo, 6 days), NUGC4; format: cell-based
Method in brief: (§1)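 After a 6-day compound exposure following overnight plating, ATP luminescence (CellTiter-Glo) gave percent viability relative to DMSO-treated cells and cell-free medium controls. IC50 = concentration at 50% viability, from 4-parameter logistic or Excel fit.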

NUGC3 (P53 Y220C) = assay: Cell viability assay (CellTiter-Glo, 6 days), NUGC3; format: cell-based
Method in brief: as §1

[1] = test system: NUGC-3_P53_Luc single clonal cell line (p53 Y220C); assay: Reporter gene assay (p53 RE luciferase); format: cell-based
Method in brief: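 Luminescence normalised to DMSO-only (0%) and 10 μM Ref-1a (100%) wells gives % activity, fitted by 4-parameter logistic or Excel to yield EC50 at 50%. Reporter line: NUGC-3 with p53 response element-luc2P, compound-treated 6 h at 37 °C.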

[2] = molecular target: T1, His-p53 Y220C (94-294) protein (Homo sapiens, UniProt P04637, Y220C); assay: In vitro DNA binding assay (HTRF); format: biochemical; conditions: % activation normalized to 2 μM Ref-1a high control
T1 construct: His-p53 Y220C (94-294) protein

[3] = Homo sapiens, NUGC-4, 144 h, cell viability, 6 days, CellTiter-Glo, read-out: NUGC4 (P53 WT) IC50
[4] = Homo sapiens, NUGC-3, 144 h, cell viability, 6 days, CellTiter-Glo, read-out: NUGC3 (P53 Y220C) IC50
[5] = Homo sapiens, NUGC-3, 6 h, luciferase reporter, 6 hours, normalized to Ref-1a (10 μM) high control, read-out: p53(Y220C)_NUGC-3 EC50
[6] = Homo sapiens, NUGC-3, luciferase reporter, 6 hours, normalized to Ref-1a (10 μM) high control, read-out: p53(Y220C)_NUGC-3 EC50
[7] = cell viability, 6 days, CellTiter-Glo, read-out: NUGC4 (P53 WT) IC50
[8] = cell viability, 6 days, CellTiter-Glo, read-out: NUGC3 (P53 Y220C) IC50
[9] = luciferase reporter, 6 hours, normalized to Ref-1a (10 μM) high control, read-out: p53(Y220C)_NUGC-3 EC50

| EC50 [2] [nM] | Structure (SMILES) | IC50 (NUGC4 (P53 WT); [3]) [µM] | IC50 (NUGC3 (P53 Y220C); [4]) [µM] | EC50 [1, 5] [µM] | EC50 [1, 6] [µM] | IC50 (NUGC4 (P53 WT); [7]) [µM] | IC50 (NUGC3 (P53 Y220C); [8]) [µM] | EC50 [1, 9] [µM] | IC50 (NUGC4 (P53 WT); Homo sapiens, NUGC-4, 144 h, read-out: NUGC4 (P53 WT) IC50 (μM)) [µM] | IC50 (NUGC3 (P53 Y220C); Homo sapiens, NUGC-3, 144 h, read-out: NUGC3 (P53 Y220C) IC50 (μM)) [µM] | EC50 ([1]; Homo sapiens, NUGC-3, 6 h, read-out: p53(Y220C)_NUGC-3 EC50 (μM)) [µM] |
| --- | --- | --- | --- | --- | --- | --- | --- | --- | --- | --- | --- |
| 102 | CN1CC[C@@H](Nc2cccc3c(CC(F)(F)F)c(C#CCNc4cc(F)c(P(C)(C)=O)cc4F)sc23)[C@@H](F)C1 (racemic) [Example 91, (2,5-difluoro-4-((3-(7-(((Z)-3-fluoro-1-methylpiperidin-4-yl)amino)-3-(2,2,2-trifluoroethyl)benzo[b]thiophen-2-yl)prop-2-yn-1-yl)amino)phenyl)dimethylphosphine oxide] | 9.41 | 1.8 | – | 0.26 | – | – | – | – | – | – |
| 69 | CN1CC[C@@H](Nc2cccc3c(CC(F)(F)F)c(C#CCNC(=O)c4cnn(C(C)(C)C)c4)sc23)[C@@H](F)C1 (racemic) [Example 129, 1-(tert-butyl)-N-(3-(7-(((Z)-3-fluoro-1-methylpiperidin-4-yl)amino)-3-(2,2,2-trifluoroethyl)benzo[b]thiophen-2-yl)prop-2-yn-1-yl)-1H-pyrazole-4-carboxamide] | 8.95 | 1.85 | – | 0.18 | – | – | – | – | – | – |
| 106 | COc1cc(P(C)(C)=O)ccc1NCC#Cc1sc2c(NC3CC(C)N(C)C(C)C3)cccc2c1CC(F)(F)F (stereo not drawn) [Example 143, (3-methoxy-4-((3-(3-(2,2,2-trifluoroethyl)-7-((1,2,6-trimethylpiperidin-4-yl)amino)benzo[b]thiophen-2-yl)prop-2-yn-1-yl)amino)phenyl)dimethylphosphine oxide] | 6.94 | 1.94 | – | 0.45 | – | – | – | – | – | – |
| 44 | COc1cc(C(=O)NC2CCN(C)CC2F)ccc1NCC#Cc1sc2c(NC3CCN(C)CC3F)cccc2c1CC(F)(F)F (stereo not drawn) [Example 68, N-(3-fluoro-1-methylpiperidin-4-yl)-4-((3-(7-(((Z)-3-fluoro-1-methylpiperidin-4-yl)amino)-3-(2,2,2-trifluoroethyl)benzo[b]thiophen-2-yl)prop-2-yn-1-yl)amino)-3-methoxybenzamide] | – | – | – | – | 1.39 | 1.08 | 0.64 | – | – | – |
| 48 | COc1cc(S(C)(=O)=O)ccc1NCC#Cc1cc2c(N[C@@H]3CCN(C)C[C@@H]3F)cccc2n1CC(F)(F)F [Ref-1a, N-((3S,4R)-3-fluoro-1-methylpiperidin-4-yl)-2-(3-((2-methoxy-4-(methylsulfonyl)phenyl)amino)prop-1-yn-1-yl)-1-(2,2,2-trifluoroethyl)-1H-indol-4-amine, reference compound] | 11 | 0.54 | – | 0.05 | – | – | – | – | – | – |
| 47 | COc1cc(C(N)=O)ccc1NCC#Cc1sc2c(NC3CCN(C)CC3F)cccc2c1CC(F)(F)F (stereo not drawn) [Example 46, 4-((3-(7-(((Z)-3-fluoro-1-methylpiperidin-4-yl)amino)-3-(2,2,2-trifluoroethyl)benzo[b]thiophen-2-yl)prop-2-yn-1-yl)amino)-3-methoxybenzamide] | – | – | – | – | 10.5 | 1.35 | 0.17 | – | – | – |
| 87 | CNC(=O)c1ccc(NCC#Cc2sc3c(N[C@@H]4CCN(C)C[C@@H]4F)cccc3c2CC(F)(F)F)c(OCCOC)c1 (racemic) [Example 81, 4-((3-(7-(((Z)-3-fluoro-1-methylpiperidin-4-yl)amino)-3-(2,2,2-trifluoroethyl)benzo[b]thiophen-2-yl)prop-2-yn-1-yl)amino)-3-(2-methoxyethoxy)-N-methylbenzamide] | 8.64 | 1.68 | – | 0.29 | – | – | – | – | – | – |
| 33 | CN1CC[C@@H](Nc2cccc3c(CC(F)(F)F)c(C#CCNc4ccc(P(C)(C)=O)c5c4OCC5)sc23)[C@@H](F)C1 [Example 187, (7-((3-(7-(((3S,4R)-3-fluoro-1-methylpiperidin-4-yl)amino)-3-(2,2,2-trifluoroethyl)benzo[b]thiophen-2-yl)prop-2-yn-1-yl)amino)-2,3-dihydrobenzofuran-4-yl)dimethylphosphine oxide] | 5.32 | 0.29 | – | 0.05 | – | – | – | – | – | – |
| 15 | [2H]C([2H])([2H])Oc1cc(P(C)(C)=O)ccc1NCC#Cc1sc2c(N[C@@H]3CCN(C)C[C@@H]3F)cccc2c1CC(F)(F)F [Example 174, (4-((3-(7-(((3S,4R)-3-fluoro-1-methylpiperidin-4-yl)amino)-3-(2,2,2-trifluoroethyl)benzo[b]thiophen-2-yl)prop-2-yn-1-yl)amino)-3-(methoxy-d3)phenyl)dimethylphosphine oxide] | 5.93 | 0.35 | – | 0.06 | – | – | – | – | – | – |

| Structure (SMILES) | EC50 [2] [nM] | IC50 (NUGC4 (P53 WT); [3]) [µM] | IC50 (NUGC3 (P53 Y220C); [4]) [µM] | EC50 [1, 5] [µM] | EC50 [1, 6] [µM] | IC50 (NUGC4 (P53 WT); [7]) [µM] | IC50 (NUGC3 (P53 Y220C); [8]) [µM] | EC50 [1, 9] [µM] | IC50 (NUGC4 (P53 WT); Homo sapiens, NUGC-4, 144 h, read-out: NUGC4 (P53 WT) IC50 (μM)) [µM] | IC50 (NUGC3 (P53 Y220C); Homo sapiens, NUGC-3, 144 h, read-out: NUGC3 (P53 Y220C) IC50 (μM)) [µM] | EC50 ([1]; Homo sapiens, NUGC-3, 6 h, read-out: p53(Y220C)_NUGC-3 EC50 (μM)) [µM] |
| --- | --- | --- | --- | --- | --- | --- | --- | --- | --- | --- | --- |
| COc1cc(P(C)(C)=O)ccc1NCC#Cc1sc2c(N[C@@H]3CCN(C)C[C@H]3C)cccc2c1CC(F)(F)F [Example 128, (4-((3-(7-(((3R,4R)-1,3-dimethylpiperidin-4-yl)amino)-3-(2,2,2-trifluoroethyl)benzo[b]thiophen-2-yl)prop-2-yn-1-yl)amino)-3-methoxyphenyl)dimethylphosphine oxide] | 53 | 2.26 | 0.87 | 0.1 | – | – | – | – | – | – | – |
| COc1cc(P(C)(C)=O)ccc1NCC#Cc1sc2c(NC3[C@@H]4COC[C@H]3CN(C)C4)cccc2c1CC(F)(F)F (single isomer, unassigned) [Example 197] | 26 | 11.5 | 0.39 | – | 0.12 | – | – | – | – | – | – |
| CNC(=O)c1ccc(NCC#Cc2sc3c(N[C@@H]4CCN(C)C[C@@H]4F)cccc3c2CC(F)(F)F)c(OC)c1 [Example 113, 4-((3-(7-(((3S,4R)-3-fluoro-1-methylpiperidin-4-yl)amino)-3-(2,2,2-trifluoroethyl)benzo[b]thiophen-2-yl)prop-2-yn-1-yl)amino)-3-methoxy-N-methylbenzamide] | 44 | 6.1 | 0.93 | 0.07 | – | – | – | – | – | – | – |
| COc1cc(P2(=O)CCCC2)ccc1NCC#Cc1sc2c(N[C@@H]3CCN(C)C[C@@H]3F)cccc2c1CC(F)(F)F [Example 117, 1-(4-((3-(7-(((3S,4R)-3-fluoro-1-methylpiperidin-4-yl)amino)-3-(2,2,2-trifluoroethyl)benzo[b]thiophen-2-yl)prop-2-yn-1-yl)amino)-3-methoxyphenyl)phospholane 1-oxide] | 34 | – | – | – | – | – | – | – | 8.54 | 0.93 | 0.17 |
| CN1CC[C@@H](Nc2cccc3c(CC(F)(F)F)c(C#CCNc4ccc(P(C)(C)=O)cc4C(F)(F)F)sc23)[C@@H](F)C1 [Example 105, (4-((3-(7-(((3S,4R)-3-fluoro-1-methylpiperidin-4-yl)amino)-3-(2,2,2-trifluoroethyl)benzo[b]thiophen-2-yl)prop-2-yn-1-yl)amino)-3-(trifluoromethyl)phenyl)dimethylphosphine oxide] | 35 | 10 | 1.83 | 0.2 | – | – | – | – | – | – | – |
| CNC(=O)c1ccc(NCC#Cc2sc3c(N[C@H]4CCN(C)C[C@H]4F)cccc3c2CC(F)(F)F)c(OC)c1 (racemic) [Example 41, 4-((3-(7-(((3R,4S)-3-fluoro-1-methylpiperidin-4-yl)amino)-3-(2,2,2-trifluoroethyl)benzo[b]thiophen-2-yl)prop-2-yn-1-yl)amino)-3-methoxy-N-methylbenzamide] | 57 | 6.14 | 1.54 | – | 0.6 | – | – | – | – | – | – |
